The results in this text go back to patent publication US12660819B2, “Herbicidal derivatives” (SYNGENTA CROP PROTECTION AG, priority 2020, dated 2026).

Assay type in all cases: in vivo
In experiment [1] the test system is Setaria faberi (SETFA). Description: Pre-emergence Test (glasshouse, percentage damage to the plant). The following applies: 1000 g/ha unless otherwise stated, Setaria faberi.
The test system of experiment [2] is Zea mays (ZEAMX). The description is as above. The following applies: 1000 g/ha unless otherwise stated, Zea mays.
For experiment [3], the system named is Zea mays (ZEAMX). As to the kind of experiment: Post-emergence Test (glasshouse, percentage damage to the plant). The conditions noted are these: post-emergence; 1000 g/ha unless otherwise stated; evaluated after 13 days. The gist of the method: (§1)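 Seeds are sown in standard soil under controlled glasshouse conditions. The pots are then sprayed at 1000 g/ha, unless otherwise stated, with compound in acetone/water (50:50) containing 0.5% Tween 20. After 13 days further growth, percentage plant damage is scored from 1 (0-20%) to 5 (81-100%).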

Experiment [4] has as its system Setaria faberi (SETFA). The experiment is described as above. The following applies: post-emergence; 1000 g/ha unless otherwise stated; evaluated after 13 days. A digest of the protocol:
as §1

In experiment [5] the test system is Amaranthus palmeri (AMAPA). Described as above. The conditions noted are these: post-emergence; 1000 g/ha unless otherwise stated; evaluated after 13 days. A digest of the protocol: (§2)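 Seeds sown in standard soil in a glasshouse (24/16 °C day/night, 14 h light, 65% humidity), then sprayed with an aqueous solution of the compound formulated in acetone/water 50:50 with 0.5% Tween 20 at 1000 g/ha unless otherwise stated. Percentage damage was scored after 13 days on a five-point scale (5=81-100%; 1=0-20%).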

For experiment [6], the system named is Ipomoea hederacea (IPOHE). The description is as above. The conditions noted are these: post-emergence; 1000 g/ha unless otherwise stated; evaluated after 13 days. The gist of the method:
as §1

In experiment [7] the test system is Amaranthus retoflexus (AMARE). The experiment is described as above. The conditions noted are these: post-emergence; 1000 g/ha unless otherwise stated; evaluated after 13 days. A digest of the protocol: as §2
The test system of experiment [8] is Echinochloa crus-galli (ECHCG). The experiment is described as above. The conditions noted are these: post-emergence; 1000 g/ha unless otherwise stated; evaluated after 13 days. The gist of the method:
as §2

The subject of experiment [9] is Ipomoea hederacea (IPOHE). Description: Pre-emergence Test (glasshouse, percentage damage to the plant). The conditions noted are these: 1000 g/ha unless otherwise stated, Ipomoea hederacea.
In experiment [10] the test system is Amaranthus retoflexus (AMARE). Described as above. The conditions noted are these: 1000 g/ha unless otherwise stated, Amaranthus retoflexus.
In experiment [11] the test system is Echinochloa crus-galli (ECHCG). The description is as above. The conditions noted are these: 1000 g/ha unless otherwise stated, Echinochloa crus-galli.
Experiment [12] has as its system Amaranthus palmeri (AMAPA). Described as above. The following applies: 1000 g/ha unless otherwise stated, Amaranthus palmeri.

Turning to `CCn1c(C)c(-c2cc(OCC3CC3)c(Cl)cc2F)c(=O)c(C(=O)O)c1-c1ccc(Cl)c(Cl)c1` [Compound 246, 5-[4-chloro-5-(cyclopropylmethoxy)-2-fluoro-phenyl]-2-(3,4-dichlorophenyl)-1-ethyl-6-methyl-4-oxo-pyridine-3-carboxylic acid], the “percentage damage to the plant, SETFA (five-point scale)” value (“percentage damage to the plant, SETFA” below) with Setaria faberi (SETFA) [1] was 2 (2=21-40%). In addition, in the experiment with Zea mays (ZEAMX) [2], the “percentage damage to the plant, ZEAMX (five-point scale)” value (shortened to “percentage damage to the plant, ZEAMX”) came to 0. In addition, the “ZEAMX, percentage damage caused to the plant (five-point scale)” value (“ZEAMX, percentage damage caused” for short) in the experiment with Zea mays (ZEAMX) [3] is reported as 3 (3=41-60%). Also, the “SETFA, percentage damage caused to the plant (five-point scale)” value (“SETFA, percentage damage caused” for short) in the experiment with Setaria faberi (SETFA) [4] is 3 (3=41-60%). For the same compound, the “AMAPA, percentage damage caused to the plant (five-point scale)” value (“AMAPA, percentage damage caused” for short) in experiment [5] was 5 (5=81-100%). In addition, the “IPOHE, percentage damage caused to the plant (five-point scale)” value (“IPOHE, percentage damage caused” for short) in experiment [6] is reported as 2 (2=21-40%). Moreover, in experiment [7], the “AMARE, percentage damage caused to the plant (five-point scale)” value (“AMARE, percentage damage caused” for short) is 5 (5=81-100%). For the same compound, the “ECHCG, percentage damage caused to the plant (five-point scale)” value (“ECHCG, percentage damage caused” for short) in experiment [8] is on record as 4 (4=61-80%). Further, the “percentage damage to the plant, IPOHE (five-point scale)” value (“percentage damage to the plant, IPOHE” for short) in [9] is 0. Moreover, the “percentage damage to the plant, AMARE (five-point scale)” value (“percentage damage to the plant, AMARE” below) in experiment [10] was 5 (5=81-100%). The “percentage damage to the plant, ECHCG (five-point scale)” value (shortened to “percentage damage to the plant, ECHCG”) in experiment [11] was 4 (4=61-80%). In addition, the “percentage damage to the plant, AMAPA (five-point scale)” value (“percentage damage to the plant, AMAPA” for short) in [12] is recorded as 5 (5=81-100%).

Regarding `Cc1c(-c2ccc(Cl)cc2Cl)c(=O)c(C(=O)O)c(-c2ccc(Cl)c(Cl)c2)n1C` [Compound 251, 5-(2,4-dichlorophenyl)-2-(3,4-dichlorophenyl)-1,6-dimethyl-4-oxo-pyridine-3-carboxylic acid], the “percentage damage to the plant, SETFA” value with Setaria faberi (SETFA) [1] is 0. Moreover, the “percentage damage to the plant, ZEAMX” value in the experiment on Zea mays (ZEAMX) [2] turned out to be 0. Moreover, the “ZEAMX, percentage damage caused” value with Zea mays (ZEAMX) [3] is listed as 1 (1=0-20%). In addition, in the experiment with Setaria faberi (SETFA) [4], the “SETFA, percentage damage caused” value worked out at 0. The “AMAPA, percentage damage caused” value in experiment [5] is 3 (3=41-60%). Moreover, the “IPOHE, percentage damage caused” value in experiment [6] is recorded as 0. The “AMARE, percentage damage caused” value in [7] is recorded as 4 (4=61-80%). For the same compound, the “ECHCG, percentage damage caused” value in experiment [8] is reported as 1 (1=0-20%). Also, the “percentage damage to the plant, IPOHE” value in [9] was determined as 0. In addition, the “percentage damage to the plant, AMARE” value in experiment [10] is 1 (1=0-20%). Besides, the “percentage damage to the plant, ECHCG” value in experiment [11] was determined as 0. In experiment [12], the “percentage damage to the plant, AMAPA” value is recorded as 2 (2=21-40%).

For the compound `Cc1c(-c2ccc(F)cc2F)c(=O)c(C(=O)O)c(-c2ccc(Cl)c(Cl)c2)n1C` [Compound 252, 2-(3,4-dichlorophenyl)-5-(2,4-difluorophenyl)-1,6-dimethyl-4-oxo-pyridine-3-carboxylic acid], the “percentage damage to the plant, SETFA” value in the experiment on Setaria faberi (SETFA) [1] is 4 (4=61-80%). Moreover, the “percentage damage to the plant, ZEAMX” value with Zea mays (ZEAMX) [2] was 0. In addition, the “ZEAMX, percentage damage caused” value with Zea mays (ZEAMX) [3] is 2 (2=21-40%). Further, the “SETFA, percentage damage caused” value in the experiment with Setaria faberi (SETFA) [4] is 4 (4=61-80%). The “AMAPA, percentage damage caused” value in [5] is 5 (5=81-100%). The “IPOHE, percentage damage caused” value in experiment [6] is 2 (2=21-40%). For the same compound, the “AMARE, percentage damage caused” value in experiment [7] was 4 (4=61-80%). In addition, the “ECHCG, percentage damage caused” value in experiment [8] is listed as 5 (5=81-100%). In addition, the “percentage damage to the plant, IPOHE” value in experiment [9] is listed as 3 (3=41-60%). Moreover, the “percentage damage to the plant, AMARE” value in [10] is 3 (3=41-60%). The “percentage damage to the plant, ECHCG” value in [11] is given as 5 (5=81-100%). For the same compound, the “percentage damage to the plant, AMAPA” value in experiment [12] was 5 (5=81-100%).

As to `Cc1c(-c2ccc(Cl)cc2F)c(=O)c(C(=O)O)c(-c2ccc(Cl)c(Cl)c2)n1C` [Compound 253, 5-(4-chloro-2-fluoro-phenyl)-2-(3,4-dichlorophenyl)-1,6-dimethyl-4-oxo-pyridine-3-carboxylic acid], the “percentage damage to the plant, SETFA” value in the experiment on Setaria faberi (SETFA) [1] is listed as 5 (5=81-100%). In the experiment with Zea mays (ZEAMX) [2], the “percentage damage to the plant, ZEAMX” value is 1 (1=0-20%). Further, in the experiment on Zea mays (ZEAMX) [3], the “ZEAMX, percentage damage caused” value is 3 (3=41-60%). The “SETFA, percentage damage caused” value in the experiment on Setaria faberi (SETFA) [4] is reported as 5 (5=81-100%). Also, the “AMAPA, percentage damage caused” value in experiment [5] was 5 (5=81-100%). Moreover, the “IPOHE, percentage damage caused” value in experiment [6] is listed as 3 (3=41-60%). In addition, in [7], the “AMARE, percentage damage caused” value is recorded as 5 (5=81-100%). The “ECHCG, percentage damage caused” value in experiment [8] is reported as 5 (5=81-100%). For the same compound, the “percentage damage to the plant, IPOHE” value in experiment [9] was 4 (4=61-80%). Besides, the “percentage damage to the plant, AMARE” value in experiment [10] is 5 (5=81-100%). Moreover, the “percentage damage to the plant, ECHCG” value in experiment [11] is 5 (5=81-100%). In addition, in experiment [12], the “percentage damage to the plant, AMAPA” value was 5 (5=81-100%).

As to `CCn1c(C)c(-c2ccc(Cl)cc2)c(=O)c(C(=O)O)c1-c1ccc(F)c(Cl)c1` [Compound 258, 2-(3-chloro-4-fluoro-phenyl)-5-(4-chlorophenyl)-1-ethyl-6-methyl-4-oxo-pyridine-3-carboxylic acid], in the experiment with Setaria faberi (SETFA) [1], the “percentage damage to the plant, SETFA” value was 5 (5=81-100%). Besides, in the experiment on Zea mays (ZEAMX) [2], the “percentage damage to the plant, ZEAMX” value is reported as 1 (1=0-20%). Further, the “ZEAMX, percentage damage caused” value in the experiment with Zea mays (ZEAMX) [3] is listed as 5 (5=81-100%). Further, the “SETFA, percentage damage caused” value in the experiment with Setaria faberi (SETFA) [4] is 5 (5=81-100%). Moreover, the “AMAPA, percentage damage caused” value in experiment [5] is listed as 5 (5=81-100%). Also, the “IPOHE, percentage damage caused” value in experiment [6] is on record as 3 (3=41-60%). Also, in experiment [7], the “AMARE, percentage damage caused” value is 4 (4=61-80%). Also, the “ECHCG, percentage damage caused” value in experiment [8] was 5 (5=81-100%). For the same compound, the “percentage damage to the plant, IPOHE” value in [9] was 1 (1=0-20%). Further, the “percentage damage to the plant, AMARE” value in [10] is 5 (5=81-100%). Further, the “percentage damage to the plant, ECHCG” value in experiment [11] was 5 (5=81-100%). The “percentage damage to the plant, AMAPA” value in experiment [12] is 5 (5=81-100%).

For `CCn1c(C)c(-c2cc(OC(C)C)c(Cl)cc2F)c(=O)c(C(=O)O)c1-c1ccc(F)c(F)c1` [Compound 260, 5-(4-chloro-2-fluoro-5-isopropoxy-phenyl)-2-(3,4-difluorophenyl)-1-ethyl-6-methyl-4-oxo-pyridine-3-carboxylic acid], the “percentage damage to the plant, SETFA” value with Setaria faberi (SETFA) [1] is recorded as 4 (4=61-80%). Besides, in the experiment on Zea mays (ZEAMX) [2], the “percentage damage to the plant, ZEAMX” value is given as 1 (1=0-20%). Further, the “ZEAMX, percentage damage caused” value in the experiment with Zea mays (ZEAMX) [3] is recorded as 3 (3=41-60%). For the same compound, in the experiment on Setaria faberi (SETFA) [4], the “SETFA, percentage damage caused” value is listed as 4 (4=61-80%). In addition, the “AMAPA, percentage damage caused” value in [5] is on record as 4 (4=61-80%). Further, the “IPOHE, percentage damage caused” value in experiment [6] is 3 (3=41-60%). Besides, the “AMARE, percentage damage caused” value in experiment [7] is reported as 4 (4=61-80%). In addition, in [8], the “ECHCG, percentage damage caused” value is listed as 4 (4=61-80%). Moreover, the “percentage damage to the plant, IPOHE” value in experiment [9] was 3 (3=41-60%). Also, the “percentage damage to the plant, AMARE” value in experiment [10] is given as 4 (4=61-80%). Besides, the “percentage damage to the plant, ECHCG” value in [11] was 5 (5=81-100%). In [12], the “percentage damage to the plant, AMAPA” value is 4 (4=61-80%).
